Measurements: patent US20260158011A1 (Achieve Life Sciences, Inc., priority 2023, published 2026)
Where two headings read alike, the source gives them in different places.

Tested on: adults who smoked 10 cigarettes per day
Procedure: Safety was assessed by measurement of vital signs and participant self-report of adverse events and concomitant medications on day 2 and at weekly visits during treatment from week 1 to 12 and through an additional 12-week follow-up. Hematology and chemistry laboratory tests were done at weeks 1, 6, and 12. Electrocardiograms were done at weeks 6 and 12. Clinically significant adverse events or abnormalities were followed until resolution or end of study.
The study had two primary endpoints. […] Study success was defined as either primary endpoint meeting statistical criterion. The secondary outcome measures were verified continuous cigarette abstinence to week 24 (weeks 3 to 24 for Arms B vs. A; weeks 9 to 24 for Arms C vs. A). A third secondary outcome measure compared the risk of relapse to smoking between weeks 6 and 24 among participants assigned to cytisinicline who achieved abstinence by week 6; these individuals were either switched to placebo at week 6 (Arm B) or continued cytisinicline to week 12 (Arm C). Other pre-specified endpoints included comparing the difference between arms in verified 7-day point-prevalence abstinence at each visit from week 2 through week 24 and assessing for evidence of effect modification for subsets defined by baseline attributes. To assess cigarette craving between groups, the Brief Questionnaire of Smoking Urges (QSU-brief) was administered at clinic visits on Day 0 and at Weeks 1 to 6 (4, 5). Safety outcomes included the incidence of treatment-emergent serious and non-serious adverse events during treatment with cytisinicline or placebo and clinically-significant changes in vital signs, laboratory tests or electrocardiograms.
Analyses for the binary primary and secondary outcomes were based on exact analyses 2×2 tables stratified by clinical site. Missed assessments of primary and secondary endpoints were imputed as non-success, thereby enabling analyses following the intent-to-treat principle. The Hochberg procedure was used to control for multiplicity (6). A target sample of 750 participants (n=250 per arm) was computed and verified using simulations to provide 96% power for specifications of an overall one-sided 0.025 type I error probability and success probabilities of 7% for placebo and 19% for cytisinicline. Sensitivity analyses included assessments of effect modification related to subsets defined by baseline attributes using logistic and cumulative logit models. Longitudinal analyses used Mixed Model for Repeated Measures methodology (7). Safety analyses included all randomized participants who received at least one dose of study drug. Analyses were conducted by BB.

[1] = Arm B Cytisinicline 6 weeks + placebo 6 weeks, N = 269
[2] = Arm B Cytisinicline 6 weeks + placebo 6 weeks, of 459 events
[3] = Arm C Cytisinicline 12 weeks, N = 270
[4] = Arm C Cytisinicline 12 weeks, of 494 events

O=c1cccc2n1C[C@@H]1CNC[C@H]2C1 [cytisine, (−)-Cytisine]
Treatment-emergent adverse events reported (6-week cytisinicline arm): 172 (63.9%) participants (%) | Treatment-emergent adverse events reported (12-week cytisinicline arm): 184 (68.2%) participants (%) | OR for serious adverse events, cytisinicline versus placebo (539 cytisinicline vs 270 placebo participants): 3.08 | Study drug discontinuation due to adverse events (Arm B): 2.6% | Number of treatment emergent adverse events [1]: 459 | Participants with Abnormal dreams (treatment-emergent adverse event), % [1]: 8.2% | Participants with Anxiety (treatment-emergent adverse event), % [1]: 2.6% | Participants with Constipation (treatment-emergent adverse event), % [1]: 5.9% | Participants with Diarrhea (treatment-emergent adverse event), % [1]: 3.7% | Participants with Headache (treatment-emergent adverse event), % [1]: 6.7% | Participants with Insomnia (treatment-emergent adverse event), % [1]: 8.6% | Participants with Nausea (treatment-emergent adverse event), % [1]: 5.9% | Participants with any serious adverse event, % [1]: 3.7% | Participants with any treatment emergent adverse event, % [1]: 63.9% | Participants with any treatment-related serious adverse event, % [1]: 0% | Treatment emergent adverse events, Mild, % [2]: 63.2% | Treatment emergent adverse events, Moderate, % [2]: 32.2% | Treatment emergent adverse events, Severe, % [2]: 4.6% | Study drug discontinuation due to adverse events (Arm C): 3.7% | Number of treatment emergent adverse events [3]: 494 | Participants with Abnormal dreams (treatment-emergent adverse event), % [3]: 7.8% | Participants with Anxiety (treatment-emergent adverse event), % [3]: 5.6% | Participants with Constipation (treatment-emergent adverse event), % [3]: 4.8% | Participants with Diarrhea (treatment-emergent adverse event), % [3]: 4.4% | Participants with Headache (treatment-emergent adverse event), % [3]: 7.8% | Participants with Insomnia (treatment-emergent adverse event), % [3]: 9.6% | Participants with Nausea (treatment-emergent adverse event), % [3]: 5.6% | Participants with any serious adverse event, % [3]: 3.0% | Participants with any treatment emergent adverse event, % [3]: 68.2% | Participants with any treatment-related serious adverse event, % [3]: 0% | Treatment emergent adverse events, Mild, % [4]: 61.3% | Treatment emergent adverse events, Moderate, % [4]: 36.0% | Treatment emergent adverse events, Severe, % [4]: 2.6% | Treatment-related SAEs (all arms): No SAE was judged to be treatment-related | Serious adverse events (SAEs) (of 539 participants on cytisinicline): 18 (3.3%) participants (%) | Study drug discontinuation due to adverse events (of 539 participants receiving cytisinicline (Arms B and C)): 17 (3.2%) participants (%)
